System: UTI
Assay: Clinical course of UTI (occurrence, relapse, symptoms) in treated women
Type: in vivo, human
Conditions: Example 4: person, antibiotic received twice, before treatment with the composition
Protocol: One wheelchair-bound person, with recurrent UTI (UTI every week) was treated according to an embodiment of the invention. Prior to the treatment, the urine of the person was tested using bacteria test strips (NITRISTIC®, RAERAD Products, Sweden) following the instructions from the manufacturer. […] The person was given a composition with 1 g calcium carbonate (pH-KALK, pH Balans AB, Sweden) together with 2 g D-mannose (DM, BECKMAN-KENKO GMBH, Germany) or 1 g citric acid (SANTA MARIA AB, Sweden) together with 2 g D-mannose (DM, BECKMAN-KENKO GMBH, Germany). The compositions were taken in an alternating administration pattern 5 times per day (see Table 2 for details). The initial treatment lasted for 4 days. […] After the initial treatment, the person continued with the treatment to prevent UTI according to Table 2 alternating pH three times a day for five months. […] After discontinuing the treatment, the person relapsed with UTI within 3 weeks.
Prior to the treatment, the urine was tested using bacteria test strips (NITRISTIC®, RAERAD Products, Sweden) following the instructions from the manufacturer.
The person was then treated according to an embodiment of the invention (see Table 4 for details). […] Furthermore the bacteria test strips were negative.

## CC(C)(C)C(=O)OCOC(=O)[C@@H]1N2C(=O)[C@@H](/N=C/N3CCCCCC3)[C@H]2SC1(C)C [SELEXID]
  result of antibiotic treatment against UTI: no apparent results

From patent US10525069B2, “Treatment of urinary tract infection” (BIOMEDICALS SWEDEN AB, priority 2014, dated 2020)
